Data published in publication PMC4140855, “Production of an Attenuated Phenol-Soluble Modulin Variant Unique to the MRSA Clonal Complex 30 Increases Severity of Bloodstream Infection” (PLoS Pathogens, 2014).

Columns and labels:
human neutrophils [1] = assay: Human neutrophil chemotaxis / Ca2+ flux with FPR1 inhibited by CHIPS; type: cell-based; conditions: peptide 100 nM; CHIPS 1.4 µg/ml, 20 min pre-incubation at room temperature; three donors, quadruplicate
Description: Next, we analyzed Ca^2+ flux as a general measure to test for neutrophil activation, as used in previous studies. HL60 cells stably transfected with different FPR receptor genes were used to determine which FPR receptors are differentially activated by PSMα3 versus PSMα3N22Y (Fig. 4A). […] At a peptide concentration of 100 nM, we observed a difference of ∼factor 2 in chemotactic activity comparing the two peptides when FPR1 recognition was inhibited by CHIPS, likely attributable to FPR2-mediated recognition. […]
(A) Differential activation of FPRs by PSMα3 versus PSMα3N22Y was measured using synthetic peptides and Ca^2+ flux observed in HL60 cells stably transfected with the corresponding FPR genes as readout, using three biological and two technical replicates. The calculated Kd values are shown on the right. […]
Human neutrophils were isolated from venous blood of healthy donors as described, [39]. Neutrophil chemotaxis and Ca^2+ flux were determined as previously described, [24]. […] Chemotaxis of neutrophils was determined using a transwell system (Costar) with analysis of neutrophil migration using fluorescence labeling. Calcium fluxes were monitored as a surrogate marker for chemotaxis since it can be measured more robustly and accurately than chemotaxis. […] Measurements of 2,000 events were performed and Ca^2+ flux was expressed as relative fluorescence corrected for buffer controls. […]

human erythrocytes = assay: Hemolysis; type: cell-based; conditions: synthetic peptides, 37°C, 1 h, 2% erythrocytes, OD 540 nm; 2 donors, triplicate; compared to PSMα3N22Y
Description: Figure 5 PSMα3N22Y has diminished cytolytic activities. (A) PMN lysis of synthetic PSMα3N22Y versus PSMα3. Data are from 2 donors, measured in triplicate each after incubation at 37°C for 1 h. […] (B) Hemolysis of synthetic PSMα3N22Y versus PSMα3. Data are from 2 donors, measured in triplicate, after incubation at 37°C for 1 h. (C, D) PMN lysis and hemolysis, respectively, of culture filtrates from PSMα3N22Y- versus PSMα3-producing strains when expressed on plasmids. pTXΔ16 is the empty control vector. The background strain in all constructs is a PSM-free USA300 strain (LACΔpsmαΔpsmβΔhld). Culture filtrates were diluted 1∶20 for the PMN lysis and 1∶2 for the hemolysis measurements. PMN lysis results are from two and hemolysis data from one donor, with three replicates measured each. (E) PMN lysis of culture filtrates from MRSA252 (252) versus 252*, in which the psmα3 gene (expressing PSMα3N22Y) on the genome was changed to express PSMα3 as present in all non-CC30 strains. […] Culture filtrates were diluted 1∶10. *, p<0.05 (paired t-test). […]
Hemolysis assays were performed according to Wang et al. Briefly, whole blood from humans was washed twice with ice-cold DPBS. […] After incubation at 37°C for 1 h, the plates were centrifuged at 233×g at 4°C for 5 min, supernatants were collected, and the optical density was measured at 540 nm.

human neutrophils [2] = conditions: ref [11]; cited from earlier work
Excerpt: PSMs are short, amphipathic, α-helical peptides with a major impact on S. aureus virulence, [11]. The PSMα peptides of S. aureus in particular cause lysis of a variety of cell types, including neutrophils (or polymorphonuclear leukocytes, PMNs), monocytes, erythrocytes, and osteoblasts [11]–[13]. The rather low target specificity of PSM-mediated cytolysis is due to the fact that lysis is believed to be receptor-independent, [15], which is reflected by the capacity of PSMs to lyse artificial vesicles. In addition, PSMs have pro-inflammatory capacities that are recep ...

SMILES: CSCC[C@H](NC=O)C(=O)N[C@@H](CCC(=O)O)C(=O)N[C@@H](Cc1ccccc1)C(=O)N[C@H](C(=O)N[C@@H](C)C(=O)N[C@@H](CCCCN)C(=O)N[C@@H](CC(C)C)C(=O)N[C@@H](Cc1ccccc1)C(=O)N[C@@H](CCCCN)C(=O)N[C@@H](Cc1ccccc1)C(=O)N[C@@H](Cc1ccccc1)C(=O)N[C@@H](CCCCN)C(=O)N[C@@H](CC(=O)O)C(=O)N[C@@H](CC(C)C)C(=O)N[C@@H](CC(C)C)C(=O)NCC(=O)N[C@@H](CCCCN)C(=O)N[C@@H](Cc1ccccc1)C(=O)N[C@@H](CC(C)C)C(=O)NCC(=O)N[C@@H](CC(N)=O)C(=O)N[C@@H](CC(N)=O)C(=O)O)C(C)C [PSMα3]
- Factor of difference in chemotactic activity between the two peptides, FPR1 inhibited by CHIPS (human neutrophils [1]): ~2
- Cytolytic capacity toward human erythrocytes (human erythrocytes): significantly higher cytolytic capacities
- Capacity to elicit chemotaxis by neutrophils, relative to other PSMs (human neutrophils [2]): by far exceeds that of any other PSM of S. aureus
- Pro-inflammatory and cytolytic potency relative to other PSMs of S. aureus (human neutrophils [2]): by far most pro-inflammatory and cytolytic PSM of S. aureus
